# Measured values reported in the supplement of paper PMC10307832.
# Legend:
# Experiment in all cases: relative viability (nuclei count vs DMSO), 5 days (fraction); higher = more cells survive
# 201T = system: 201T
# Procedure, shortened: (§1)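 For relative viability, nuclei counts in treated wells were divided by those in vehicle wells. Lung cancer cell lines had been pin-tool dosed in 1536-well plates the day after seeding and cultured for 5 days, then fixed and stained in one step (final 0.05% Triton X-100, 1% formaldehyde, 1 ug/ml Hoechst) and imaged at 4×. Doses were one drug alone or a fixed anchor-drug dose plus five library-drug doses (not always all listed) in √10 steps, and values are duplicate-plate medians.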
# COR-L 105 = system: COR-L 105
# Procedure, shortened: as §1
# EPLC-272H = system: EPLC-272H
# Procedure, shortened: as §1
# H3255 = system: H3255
# Procedure, shortened: as §1
# HCC-78 = system: HCC-78
# Procedure, shortened: as §1
# HCC-827 = system: HCC-827
# Procedure, shortened: as §1
# LC-2-ad = system: LC-2-ad
# Procedure, shortened: as §1
# LCLC-97TM1 = system: LCLC-97TM1
# Procedure, shortened: as §1
# NCI-H1666 = system: NCI-H1666
# Procedure, shortened: as §1
# NCI-H1915 = system: NCI-H1915
# Procedure, shortened: as §1
# NCI-H2087 = system: NCI-H2087
# Procedure, shortened: as §1
# NCI-H2126 = system: NCI-H2126
# Procedure, shortened: as §1
# NCI-H2347 = system: NCI-H2347
# Procedure, shortened: as §1
# NCI-H23 = system: NCI-H23
# Procedure, shortened: as §1
# NCI-H2405 = system: NCI-H2405
# Procedure, shortened: as §1
# NCI-H322M = system: NCI-H322M
# Procedure, shortened: as §1
# NCI-H520 = system: NCI-H520
# Procedure, shortened: as §1
# NCI-H647 = system: NCI-H647
# Procedure, shortened: as §1
# NCI-H650 = system: NCI-H650
# Procedure, shortened: as §1
# NCI-H661 = system: NCI-H661
# Procedure, shortened: as §1
# PC-14 = system: PC-14
# Procedure, shortened: as §1
# RERF-LC-KJ = system: RERF-LC-KJ
# Procedure, shortened: as §1
smiles,measurement,setting,value
Clc1ccc(Nc2nnc(Cc3ccncc3)c3ccccc23)cc1 [Vatalanib] + C[C@]1(O)C[C@@H](c2nc(-c3ccc4ccc(-c5ccccc5)nc4c3)c3c(N)nccn32)C1 [Linsitinib] (partner 1 µM),relative viability,201T; first compound 0.04 µM,1.02
same,relative viability,201T; first compound 0.1265 µM,1.04
same,relative viability,201T; first compound 0.4 µM,1.02
same,relative viability,201T; first compound 1.265 µM,0.985
same,relative viability,201T; first compound 4 µM,0.949
same,relative viability,COR-L 105; first compound 0.04 µM,0.835
same,relative viability,COR-L 105; first compound 0.1265 µM,0.87
same,relative viability,COR-L 105; first compound 0.4 µM,1.12
same,relative viability,COR-L 105; first compound 1.265 µM,0.772
same,relative viability,COR-L 105; first compound 4 µM,0.941
same,relative viability,EPLC-272H; first compound 0.04 µM,1.2
same,relative viability,EPLC-272H; first compound 0.1265 µM,1.19
same,relative viability,EPLC-272H; first compound 0.4 µM,1.27
same,relative viability,EPLC-272H; first compound 1.265 µM,1.18
same,relative viability,EPLC-272H; first compound 4 µM,1.31
same,relative viability,H3255; first compound 0.04 µM,0.984
same,relative viability,H3255; first compound 0.1265 µM,0.902
same,relative viability,H3255; first compound 0.4 µM,0.702
same,relative viability,H3255; first compound 1.265 µM,0.932
same,relative viability,H3255; first compound 4 µM,0.921
same,relative viability,HCC-78; first compound 0.04 µM,0.507
same,relative viability,HCC-78; first compound 0.1265 µM,0.467
same,relative viability,HCC-78; first compound 0.4 µM,0.527
same,relative viability,HCC-78; first compound 4 µM,0.448
same,relative viability,HCC-827; first compound 0.04 µM,0.992
same,relative viability,HCC-827; first compound 0.1265 µM,0.925
same,relative viability,HCC-827; first compound 0.4 µM,0.95
same,relative viability,HCC-827; first compound 1.265 µM,0.936
same,relative viability,HCC-827; first compound 4 µM,0.905
same,relative viability,LC-2-ad; first compound 0.04 µM,0.916
same,relative viability,LC-2-ad; first compound 0.1265 µM,0.799
same,relative viability,LC-2-ad; first compound 0.4 µM,0.971
same,relative viability,LC-2-ad; first compound 1.265 µM,0.841
same,relative viability,LC-2-ad; first compound 4 µM,0.883
same,relative viability,LCLC-97TM1; first compound 0.04 µM,0.183
same,relative viability,LCLC-97TM1; first compound 0.1265 µM,0.17
same,relative viability,LCLC-97TM1; first compound 0.4 µM,0.189
same,relative viability,LCLC-97TM1; first compound 1.265 µM,0.159
same,relative viability,LCLC-97TM1; first compound 4 µM,0.179
same,relative viability,NCI-H1666; first compound 0.04 µM,0.805
same,relative viability,NCI-H1666; first compound 0.1265 µM,0.891
same,relative viability,NCI-H1666; first compound 0.4 µM,0.923
same,relative viability,NCI-H1666; first compound 1.265 µM,0.779
same,relative viability,NCI-H1666; first compound 4 µM,0.708
same,relative viability,NCI-H1915; first compound 0.04 µM,1.06
same,relative viability,NCI-H1915; first compound 0.1265 µM,1.09
same,relative viability,NCI-H1915; first compound 0.4 µM,1.09
same,relative viability,NCI-H1915; first compound 1.265 µM,1.04
same,relative viability,NCI-H1915; first compound 4 µM,1.09
same,relative viability,NCI-H2087; first compound 0.04 µM,1.2
same,relative viability,NCI-H2087; first compound 0.1265 µM,0.87
same,relative viability,NCI-H2087; first compound 0.4 µM,1.04
same,relative viability,NCI-H2087; first compound 1.265 µM,0.908
same,relative viability,NCI-H2087; first compound 4 µM,1.05
same,relative viability,NCI-H2126; first compound 0.04 µM,0.669
same,relative viability,NCI-H2126; first compound 0.1265 µM,0.72
same,relative viability,NCI-H2126; first compound 0.4 µM,0.669
same,relative viability,NCI-H2126; first compound 1.265 µM,0.729
same,relative viability,NCI-H2126; first compound 4 µM,0.739
same,relative viability,NCI-H2347; first compound 0.04 µM,1.01
same,relative viability,NCI-H2347; first compound 0.1265 µM,0.908
same,relative viability,NCI-H2347; first compound 0.4 µM,0.976
same,relative viability,NCI-H2347; first compound 1.265 µM,0.901
same,relative viability,NCI-H2347; first compound 4 µM,0.942
same,relative viability,NCI-H23; first compound 0.04 µM,0.533
same,relative viability,NCI-H23; first compound 0.1265 µM,0.659
same,relative viability,NCI-H23; first compound 0.4 µM,0.601
same,relative viability,NCI-H23; first compound 1.265 µM,0.495
same,relative viability,NCI-H23; first compound 4 µM,0.583
same,relative viability,NCI-H2405; first compound 0.04 µM,0.951
same,relative viability,NCI-H2405; first compound 0.1265 µM,0.901
same,relative viability,NCI-H2405; first compound 1.265 µM,0.868
same,relative viability,NCI-H2405; first compound 4 µM,0.93
same,relative viability,NCI-H322M; first compound 0.04 µM,0.939
same,relative viability,NCI-H322M; first compound 0.1265 µM,0.83
same,relative viability,NCI-H322M; first compound 0.4 µM,0.975
same,relative viability,NCI-H322M; first compound 1.265 µM,0.959
same,relative viability,NCI-H322M; first compound 4 µM,0.919
same,relative viability,NCI-H520; first compound 0.04 µM,0.901
same,relative viability,NCI-H520; first compound 0.1265 µM,0.888
same,relative viability,NCI-H520; first compound 0.4 µM,0.802
same,relative viability,NCI-H520; first compound 1.265 µM,0.86
same,relative viability,NCI-H520; first compound 4 µM,0.989
same,relative viability,NCI-H647; first compound 0.04 µM,1.02
same,relative viability,NCI-H647; first compound 0.1265 µM,1.14
same,relative viability,NCI-H647; first compound 0.4 µM,1.2
same,relative viability,NCI-H647; first compound 1.265 µM,1.21
same,relative viability,NCI-H647; first compound 4 µM,1.09
same,relative viability,NCI-H650; first compound 0.04 µM,0.942
same,relative viability,NCI-H650; first compound 0.1265 µM,0.77
same,relative viability,NCI-H650; first compound 1.265 µM,0.723
same,relative viability,NCI-H650; first compound 4 µM,0.833
same,relative viability,NCI-H661; first compound 0.04 µM,0.59
same,relative viability,NCI-H661; first compound 0.1265 µM,0.477
same,relative viability,NCI-H661; first compound 0.4 µM,0.616
same,relative viability,NCI-H661; first compound 1.265 µM,0.581
same,relative viability,NCI-H661; first compound 4 µM,0.581
same,relative viability,PC-14; first compound 0.04 µM,0.955
same,relative viability,PC-14; first compound 0.1265 µM,0.905
same,relative viability,PC-14; first compound 0.4 µM,1.03
same,relative viability,PC-14; first compound 1.265 µM,0.955
same,relative viability,PC-14; first compound 4 µM,0.871
same,relative viability,RERF-LC-KJ; first compound 0.04 µM,0.932
same,relative viability,RERF-LC-KJ; first compound 0.1265 µM,0.875
same,relative viability,RERF-LC-KJ; first compound 0.4 µM,0.933
same,relative viability,RERF-LC-KJ; first compound 1.265 µM,0.762
same,relative viability,RERF-LC-KJ; first compound 4 µM,0.812
